Measured values: US4735792A, “Radioiodinated maleimides and use as agents for radiolabeling antibodies” (The United States of America as represented by the United …, priority 1987, dated 1988)
Read-outs that look alike come from different tables or passages of the source.

What was measured:
platelet proteins = test: Preliminary studies of binding with platelet proteins
[1] = Tissue distribution of radioactivity after intravenous administration in rats; format: in vivo, female Fischer 344 rats (printed "femal Fischer 344 rats"); details: for tissue uptake at 5 min / tissue uptake at 0.5 h / tissue uptake at 1 h: rat, iv; for tissue uptake at 5 min: 5 min after i.v. injection; for tissue uptake at 0.5 h: 30 min after i.v. injection; for tissue uptake at 1 h: 60 min after i.v. injection; for binding with the blood, tissue distribution (in words) / thyroid uptake / thyroid levels of radioactivity (in words): rats; for thyroid uptake / thyroid levels of radioactivity (in words): indicative of in vivo stability of radiolabel toward deiodination
Method: 4-[^125 I]iodoaniline (7.4 mCi sp. act. 700 mCi/mmol) prepared following structure described in Step 1 of Example 1 was coupled with maleic anhydride (9.5 mg) in glacial acetic acid (0.15 ml) at room temperature. The radioiodinated compound, [^125 I]3 isolated by silica gel column chromatography was refluxed with acetic anhydride
The distribution of radiactivity in tissues of femal Fischer 344 rats
(§1) after intravenous administration of [^125 I]4.^a
^a Animals had body weight range of 121-139 gm. Each animal received
3.7 ^o Ci of [^125 I]4 by tail vein injection.
The distribution of radioactivity in tissues of femal Fischer 344 rats
as §1
(75mg) and anhydrous (fused) sodium acetate (12 mg) in benzene (1.0 ml) for 3 h. The product, [^125 I]4 (3.99 mCi, 56 percent radiochemical yield based on [^125 I]3), was isolated by silica gel column chromatography. The radioactive compound [^125 I]4 was identical with an unlabeled sample of 4.

[2] = Binding to human γ-globulin (activity remaining in aqueous portion after ether extraction; TLC); details: gamma-globulin in pbs; human γ-globulin 6.7 mg/ml in PBS, 30 min at 37° C., after ether extraction; read-out: activity remaining in the aqueous portion (bound with protein), γ-globulin (converted)
Method: (§2) Samples of bovine albumin (45 mg/ml, 10 ml) and human γ-globulin (6.7 mg/ml. 10 ml) were prepared in phosphate buffer and 0.15 NaCl solution (PBS). A 10 ml sample of PBS was used as control. [^125 I]-IPM (10 μCi) in 100 λ DMSO was added to each sample and incubated for 30 min at 37° C. The samples were repeatedly extracted with ethyl ether. The unbound activity as [^125 I]-IPM was extracted with ethyl ether. The activity remaining in the aqueous portion was considered to be bound with the proteins.

human γ-globulin = test: as above; details: TLC of aqueous portion, radioactivity with a polar band
Method: as §2

IgG = test: Preliminary studies of binding with IgG
albumin = test: Preliminary studies of binding with albumin
[3] = Binding to bovine albumin (activity remaining in aqueous portion after ether extraction; TLC); details: bovine albumin 45 mg/ml in PBS, 30 min at 37° C., after ether extraction; read-out: activity remaining in the aqueous portion (bound with protein), albumin (converted)
Method: as §2

bovine albumin = test: as above; details: TLC of aqueous portion, radioactivity with a polar band
Method: as §2

red blood cells = test: Blood fractionation (plasma, red and white blood cells) studies; format: in vivo, rat; details: rats injected with [^125 I]4
Text: Blood fractionation (plasma, red and white blood cells) studies indicated 88.9% of the blood activity to be associated with red blood cells.

[4] = blood, Table 1, blood, read-out: Mean percent injected dose/gm, Blood
[5] = blood, Table 2, blood, read-out: Mean percent injected dose/gm, Blood
[6] = heart, Table 1, heart, read-out: Mean percent injected dose/gm, Heart
[7] = heart, Table 2, heart, read-out: Mean percent injected dose/gm, Heart
[8] = kidneys, Table 1, kidneys, read-out: Mean percent injected dose/gm, Kidneys
[9] = kidneys, Table 2, kidneys, read-out: Mean percent injected dose/gm, Kidneys
[10] = liver, Table 1, liver, read-out: Mean percent injected dose/gm, Liver
[11] = liver, Table 2, liver, read-out: Mean percent injected dose/gm, Liver
[12] = lungs, Table 1, lungs, read-out: Mean percent injected dose/gm, Lungs
[13] = lungs, Table 2, lungs, read-out: Mean percent injected dose/gm, Lungs
[14] = thyroid, Table 1, thyroid, read-out: Mean percent injected dose/gm, Thyroid
[15] = thyroid, Table 2, thyroid, read-out: Mean percent injected dose/gm, Thyroid

binding with platelet proteins (in words) (platelet proteins): appears to bind | tissue uptake at 5 min [1, 4]: 8.84 %ID/g | tissue uptake at 0.5 h [1, 4]: 8.44 %ID/g | tissue uptake at 1 h [1, 4]: 7.56 %ID/g | tissue uptake at 5 min [1, 5]: 57.6 %ID/g | tissue uptake at 0.5 h [1, 5]: 54.1 %ID/g | tissue uptake at 1 h [1, 5]: 48.6 %ID/g | tissue uptake at 5 min [1, 6]: 1.45 %ID/g | tissue uptake at 0.5 h [1, 6]: 1.81 %ID/g | tissue uptake at 1 h [1, 6]: 1.74 %ID/g | tissue uptake at 5 min [1, 7]: 0.61 %ID/g | tissue uptake at 0.5 h [1, 7]: 0.79 %ID/g | tissue uptake at 1 h [1, 7]: 0.74 %ID/g | tissue uptake at 5 min [1, 8]: 2.15 %ID/g | tissue uptake at 0.5 h [1, 8]: 2.12 %ID/g | tissue uptake at 1 h [1, 8]: 2.07 %ID/g | tissue uptake at 5 min [1, 9]: 2.17 %ID/g | tissue uptake at 0.5 h [1, 9]: 2.18 %ID/g | tissue uptake at 1 h [1, 9]: 2.21 %ID/g | tissue uptake at 5 min [1, 10]: 1.9 %ID/g | tissue uptake at 0.5 h [1, 10]: 1.73 %ID/g | tissue uptake at 1 h [1, 10]: 1.5 %ID/g | tissue uptake at 5 min [1, 11]: 10.2 %ID/g | tissue uptake at 0.5 h [1, 11]: 7.85 %ID/g | tissue uptake at 1 h [1, 11]: 7.05 %ID/g | tissue uptake at 5 min [1, 12]: 2.04 %ID/g | tissue uptake at 0.5 h [1, 12]: 2.52 %ID/g | tissue uptake at 1 h [1, 12]: 2.31 %ID/g | tissue uptake at 5 min [1, 13]: 1.76 %ID/g | tissue uptake at 0.5 h [1, 13]: 1.89 %ID/g | tissue uptake at 1 h [1, 13]: 1.74 %ID/g | tissue uptake at 5 min [1, 14]: 13.7 %ID/g | tissue uptake at 0.5 h [1, 14]: 21.7 %ID/g | tissue uptake at 1 h [1, 14]: 20.5 %ID/g | tissue uptake at 5 min [1, 15]: 0.13 %ID/g | tissue uptake at 0.5 h [1, 15]: 0.2 %ID/g | tissue uptake at 1 h [1, 15]: 0.19 %ID/g | thyroid uptake / thyroid levels of radioactivity (in words) ([1]; listed as IPM): consistently low | thyroid uptake / thyroid levels of radioactivity (in words) ([1]; listed as maleimide agent): low | binding with the blood, tissue distribution (in words) ([1]; listed as IPM): preferential binding | binding with the blood, tissue distribution (in words) ([1]; listed as maleimide agent): preferential binding with the blood | fraction unbound at 0.5 h [2]: ~0.6 | binding with γ-globulin by TLC (in words) (human γ-globulin): significant binding | binding with IgG (in words) (IgG): appears to bind | binding with albumin (in words) (albumin): appears to bind | fraction unbound at 0.5 h [3]: ~0.4 | binding with albumin by TLC (in words) (bovine albumin): significant binding | blood activity associated with red blood cells (red blood cells): 88.9%
SMILES: O=C1C=CC(=O)N1c1ccc([125I])cc1 [[^125 I]4, N-(p-[^125 I]iodophenyl)maleimide]
binding with the blood, tissue distribution (in words) [1]: high levels of radioactivity were associated with the blood
